This note sets out measurements from ChEMBL document CHEMBL1201862, “PubChem BioAssay data set” (2004).

Assay [1] can be described thus: C. albicans growth with fluconazole, confirmation, fluorescence, retest (AID 2467). It is filed as functional, cell-based.
The target of assay [2] is T1, Protein RecA (Mycobacterium tuberculosis, UniProt P9WHJ3).
T1 sequence (P9WHJ3 whole entry): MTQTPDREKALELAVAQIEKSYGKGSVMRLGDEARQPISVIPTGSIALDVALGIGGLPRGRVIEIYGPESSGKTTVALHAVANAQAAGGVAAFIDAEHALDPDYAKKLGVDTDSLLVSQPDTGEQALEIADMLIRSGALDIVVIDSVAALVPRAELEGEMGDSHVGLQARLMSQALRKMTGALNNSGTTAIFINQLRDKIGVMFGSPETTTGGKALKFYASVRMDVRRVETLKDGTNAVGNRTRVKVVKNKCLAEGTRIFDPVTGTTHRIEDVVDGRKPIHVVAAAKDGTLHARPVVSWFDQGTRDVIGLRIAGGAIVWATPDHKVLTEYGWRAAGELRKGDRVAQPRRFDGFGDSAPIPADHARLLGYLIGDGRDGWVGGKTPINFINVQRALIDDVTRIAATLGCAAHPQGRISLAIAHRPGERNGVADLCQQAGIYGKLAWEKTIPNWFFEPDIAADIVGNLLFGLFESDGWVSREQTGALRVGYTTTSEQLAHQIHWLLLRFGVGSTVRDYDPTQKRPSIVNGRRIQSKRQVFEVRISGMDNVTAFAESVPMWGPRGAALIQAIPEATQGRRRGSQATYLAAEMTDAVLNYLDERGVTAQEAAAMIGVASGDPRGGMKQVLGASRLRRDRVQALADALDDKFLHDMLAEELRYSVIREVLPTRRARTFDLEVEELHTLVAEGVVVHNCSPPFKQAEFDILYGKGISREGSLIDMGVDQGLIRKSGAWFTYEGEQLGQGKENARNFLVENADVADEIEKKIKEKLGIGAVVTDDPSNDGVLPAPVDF
The assay is described as follows: Fluorescence Cell-Free Homogeneous Dose Retest to Identify Inhibitors of RecA-Intein Splicing Activity. [Related pubchem assays (depositor defined):AID2097, AID2223, AID489010, AID492950]. It is filed as functional.

Assay [3] can be described thus: NIH-3T3 fibroblast cytotoxicity, dose response, cytotoxicity control, cell-based, fluorescence, Alamar Blue, secondary assay (AID 2327).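 Further: NIH-3T3 mouse fibroblasts cultured with fluconazole at 8 µg/mL.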 It counts as functional.
In assay [4] the target is T2, Replicative DNA helicase DnaB (Mycobacterium tuberculosis, UniProt P9WMR3).
T2 sequence (P9WMR3 whole entry): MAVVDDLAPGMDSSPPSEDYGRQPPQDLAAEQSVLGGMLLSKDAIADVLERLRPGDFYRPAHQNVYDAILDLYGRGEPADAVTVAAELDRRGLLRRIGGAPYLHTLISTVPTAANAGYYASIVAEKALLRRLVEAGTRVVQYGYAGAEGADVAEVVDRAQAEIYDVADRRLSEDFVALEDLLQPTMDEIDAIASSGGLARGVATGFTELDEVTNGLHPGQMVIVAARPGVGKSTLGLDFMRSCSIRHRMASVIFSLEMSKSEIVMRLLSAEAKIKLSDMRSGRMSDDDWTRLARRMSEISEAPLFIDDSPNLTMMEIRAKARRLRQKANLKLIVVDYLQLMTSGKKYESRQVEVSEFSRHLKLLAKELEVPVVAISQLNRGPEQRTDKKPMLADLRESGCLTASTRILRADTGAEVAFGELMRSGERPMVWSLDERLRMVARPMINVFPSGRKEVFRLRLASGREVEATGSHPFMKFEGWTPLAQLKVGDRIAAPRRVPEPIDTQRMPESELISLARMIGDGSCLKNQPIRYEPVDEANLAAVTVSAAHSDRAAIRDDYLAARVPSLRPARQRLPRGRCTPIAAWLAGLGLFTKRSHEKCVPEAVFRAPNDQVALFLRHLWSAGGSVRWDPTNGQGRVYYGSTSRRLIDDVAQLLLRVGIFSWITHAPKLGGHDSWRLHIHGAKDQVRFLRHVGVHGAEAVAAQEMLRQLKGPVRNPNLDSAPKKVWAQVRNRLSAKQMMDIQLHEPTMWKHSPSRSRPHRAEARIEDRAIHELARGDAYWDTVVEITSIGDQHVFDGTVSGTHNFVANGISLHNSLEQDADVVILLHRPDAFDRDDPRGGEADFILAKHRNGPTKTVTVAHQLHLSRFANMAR
The assay is described as follows: DnaB intein splicing inhibitors, dose response, biochemical, cell-free fluorescence (AID 449749). It is filed as functional.

The target of assay [5] is T3, Caspase-6 (Homo sapiens, UniProt P55212).
T3 sequence (P55212 whole entry): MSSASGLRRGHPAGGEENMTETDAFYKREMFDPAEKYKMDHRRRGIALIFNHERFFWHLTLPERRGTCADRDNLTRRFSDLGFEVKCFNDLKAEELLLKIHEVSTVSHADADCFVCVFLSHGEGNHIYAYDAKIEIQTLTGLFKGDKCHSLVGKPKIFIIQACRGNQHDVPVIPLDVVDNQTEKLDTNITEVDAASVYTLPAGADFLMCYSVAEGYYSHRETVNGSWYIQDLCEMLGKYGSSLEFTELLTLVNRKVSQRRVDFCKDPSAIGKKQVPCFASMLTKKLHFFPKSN
The assay is described as follows: human caspase-6 inhibitors, dose response, biochemical, VEID-R110 fluorescence, cherry-pick (AID 720632).

In assay [6] the target is T4, Aminopeptidase N (Plasmodium falciparum FcB1/Columbia, UniProt O96935).
T4 sequence (O96935 whole entry): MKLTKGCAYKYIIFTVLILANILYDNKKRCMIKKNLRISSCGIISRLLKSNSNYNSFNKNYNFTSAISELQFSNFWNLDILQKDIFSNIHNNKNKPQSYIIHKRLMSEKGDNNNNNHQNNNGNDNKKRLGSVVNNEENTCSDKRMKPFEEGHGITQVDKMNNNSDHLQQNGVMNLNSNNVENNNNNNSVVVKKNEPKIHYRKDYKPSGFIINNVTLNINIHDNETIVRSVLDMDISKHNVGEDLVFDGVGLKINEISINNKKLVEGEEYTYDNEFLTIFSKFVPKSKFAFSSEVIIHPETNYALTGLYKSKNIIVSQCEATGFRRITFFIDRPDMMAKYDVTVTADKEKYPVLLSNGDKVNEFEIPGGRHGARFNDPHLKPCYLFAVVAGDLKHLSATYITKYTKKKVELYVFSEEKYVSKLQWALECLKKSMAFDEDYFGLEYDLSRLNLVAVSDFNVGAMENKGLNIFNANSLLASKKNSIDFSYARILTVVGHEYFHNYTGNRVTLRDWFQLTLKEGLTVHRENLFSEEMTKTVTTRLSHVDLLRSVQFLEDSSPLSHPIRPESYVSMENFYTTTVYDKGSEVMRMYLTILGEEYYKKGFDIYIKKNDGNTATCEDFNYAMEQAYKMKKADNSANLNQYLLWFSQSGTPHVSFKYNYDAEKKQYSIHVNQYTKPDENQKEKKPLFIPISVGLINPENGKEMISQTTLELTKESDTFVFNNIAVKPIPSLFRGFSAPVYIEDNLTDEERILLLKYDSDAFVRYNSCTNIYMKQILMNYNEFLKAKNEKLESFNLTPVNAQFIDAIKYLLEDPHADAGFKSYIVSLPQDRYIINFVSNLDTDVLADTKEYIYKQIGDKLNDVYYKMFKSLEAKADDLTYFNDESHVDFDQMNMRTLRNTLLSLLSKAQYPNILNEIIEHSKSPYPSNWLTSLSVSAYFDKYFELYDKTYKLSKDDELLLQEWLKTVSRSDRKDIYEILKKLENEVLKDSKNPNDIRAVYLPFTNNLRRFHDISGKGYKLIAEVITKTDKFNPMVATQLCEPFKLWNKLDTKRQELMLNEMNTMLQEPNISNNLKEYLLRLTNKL
The assay is described as follows: P. falciparum M1AAP inhibitors, biochemical, fluorogenic H-Leu-NHMec substrate, 1536-well (AID 1445). Set-up: species or system Plasmodium falciparum 3D7, 3D7.

Assay [7] concerns the target E3 ubiquitin-protein ligase Mdm2 (Homo sapiens, UniProt Q00987). Kind of assay: enhancers of MDM2-luciferase reporter signal, concentration-effect titration, project on inhibitors of MDM2 ubiquitin ligase, cellular assay, luminescent readout, 384-well plate format (AID 1394).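 Further: MDM2 E3 inhibitors raise luminescence so EC50 is for signal enhancement.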 It is filed as functional.
Assay [8] can be described thus: Luminescence Cell-Based Dose Response to Identify Activators of 5'UTR Stem-Loop Driven Prion Protein mRNA Translation in H4-C Neuroglioblastoma Cells. [Related pubchem assays: 1829 (Project Summary), 1814 (Primary HTS)]. It is filed as functional.
Assay [9] is described as follows: Luminescence Cell-Based Dose Confirmation to Identify Activators of 5'UTR Stem-Loop Driven Alpha-Synuclein mRNA Translation in H4 Neuroglioblastoma Cells. [Related pubchem assays: 1829 (Project Summary), 1814 (Primary HTS)]. It is filed as functional.
In assay [10] the test system is H4. Kind of assay: Luminescence Cell-Based Dose Response HTS to Identify Activators of 5'UTR Stem-Loop Driven Prion Protein mRNA Translation in H4 Neuroglioblastoma Cells. [Related pubchem assays: 1829 (Project Summary), 1814 (Primary HTS)]. It is filed as functional. The conditions noted are these: Homo sapiens.
Assay [11] is described as follows: Luminescence Cell-Based Dose Response HTS to Identify Activators of Luciferase Translation or Activity in H4 […] Cells. [Related pubchem assays: 1829 (Project Summary), 1814 (Primary HTS)]. It counts as functional.
Assay [12] in a line: Luminescence Cell-Based Dose Response to Identify Activators of Luciferase Translation or Activity in H4-C Neuroglioblastoma Cells. [Related pubchem assays: 1829 (Project Summary), 1814 (Primary HTS)]. It is filed as functional.
The nature of assay [13]: THP-1 cell cytotoxicity, dose response, cytotoxicity control for Vif-APOBEC3G degradation inhibitor project, THP-1 cells (AID 1117359). It counts as functional. To be noted: Human immunodeficiency virus 1, THP-1.
A short description of assay [14]: P. falciparum ATP4 D1247Y mutant growth inhibitors, dose response, NITD609-resistant line, SYBR Green, dry powder (AID 1159571).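 Further: parasites synchronized at ring stage by sorbitol before testing.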 It counts as functional, cell-based.
The nature of assay [15]: P. falciparum Dd2 growth inhibitors, dose response, SYBR Green, dry powder samples (AID 1159566).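 Further: potency for growth inhibition with lower SYBR green DNA signal.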 It is filed as functional, cell-based.
A short description of assay [16]: HepG2 cell cytotoxicity, dose response, cytotoxicity control, plate reader, dry powder samples (AID 1159569).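 Further: inhibitor potency with signal falling toward the positive control level.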 It counts as functional, cell-based.
Assay [17] in a line: P. falciparum 3D7-ScDHODH growth inhibitors, dose response, SYBR Green, dry powder samples (AID 1159570).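 Further: parasite growth measured after 72 hours of compound exposure.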 It counts as functional, cell-based.
Assay [18] is described as follows: P. falciparum Dd2 growth inhibitors, dose response, SYBR Green, cherry-picked samples (AID 1159567). It counts as functional, cell-based.

The structures appear in SMILES notation. Active and inactive are the calls of the source. Some results are limits rather than exact numbers.

Sequence of E3 ubiquitin-protein ligase Mdm2 (Q00987 whole entry): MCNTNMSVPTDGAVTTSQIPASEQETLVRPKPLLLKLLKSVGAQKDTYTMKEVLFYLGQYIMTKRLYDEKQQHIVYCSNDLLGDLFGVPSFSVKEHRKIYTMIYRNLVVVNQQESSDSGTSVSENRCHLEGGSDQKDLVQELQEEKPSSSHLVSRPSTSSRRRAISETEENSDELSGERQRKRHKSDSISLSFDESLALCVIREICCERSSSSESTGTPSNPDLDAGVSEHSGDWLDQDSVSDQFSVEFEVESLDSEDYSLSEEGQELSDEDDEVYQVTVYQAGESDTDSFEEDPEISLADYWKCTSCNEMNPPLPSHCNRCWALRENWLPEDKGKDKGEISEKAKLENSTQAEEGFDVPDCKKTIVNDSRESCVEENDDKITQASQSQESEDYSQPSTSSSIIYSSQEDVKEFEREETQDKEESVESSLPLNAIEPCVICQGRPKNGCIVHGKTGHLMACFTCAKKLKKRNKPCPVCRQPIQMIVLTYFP

For the molecule `Cc1ccc(C(=O)c2coc3cc([N+](=O)[O-])c(O)c([N+](=O)[O-])c23)cc1`, the EC50 was > 38 µM (not active) in [1], 9.46 µM (active) in [2] and > 160 µM (inactive) in assay [3]. For the same molecule, the AC50 was 24.4 µM (active) in assay [4] and 28.8 µM (active) in [5]. The IC50 in assay [6] is 32.1 µM (active).
As to `COc1ccc(C)cc1C1=Nc2ccccc2C1(C)C`, the EC50 in assay [7] is on record as 15.4 µM (not active).
Consider `CC(C)(C)c1ccc(C(=O)NC(=S)N2CCOCC2)cc1`, for which the 50% effective concentration (EC50) was 418 nM (active) in assay [8]; 2.81 µM (active) in assay [9]; 111 nM (active) in [10]; 610 nM (active) in [11]; > 12 µM (not active) in [12].
For `Cc1ccc(NC(=O)C(=O)c2c(-c3ccccc3)cc3ccccn23)cc1S(=O)(=O)N1CCOCC1`, in [13], the CC50 was > 40 µM (active).
On to `Cc1nc2cc(NC(=O)CCS(=O)(=O)c3ccccc3)ccc2s1`, for which the concentration giving a half-maximal response (EC50) is 312 nM (active) in assay [8], 0.069 µM (active) in assay [9], < 100 nM (inconclusive) in assay [11] and 0.264 µM (active) in assay [12].
In the case of `C[C@H]1CN([C@@H](C)CO)S(=O)(=O)c2ccc(C#Cc3ccncc3)cc2O[C@@H]1CN(C)S(=O)(=O)c1ccccc1`, the AC50 in assay [14] was 3.53 µM (active); in [15] it was 4.05 µM (active); in assay [16], > 100 µM (inactive); in assay [17], 3 µM (active).
Regarding `O=C(N/N=C\c1ccc(Cl)s1)c1cccs1`, in assay [7], the concentration for a half-maximal effect (EC50) was 6.96 µM (not active).
For `COc1ccc2c3c(n(C)c2c1)[C@H](CO)N(C(=O)Nc1ccc(F)cc1)CC31CCN(S(=O)(=O)c2cccc(F)c2)CC1`, the AC50 in [14] was 1.56 µM (active); in assay [15], 0.951 µM (active); in assay [18], 1.19 µM (active); in [16] it was > 100 µM (inactive); in assay [17] it was 1.63 µM (active).
